Test results: the supplement of paper PMC10307832

How the values were obtained:
Test in all cases: relative viability (nuclei count vs DMSO), 5 days (fraction); higher = more cells survive
NCI-H838 = system: NCI-H838
Summary of the method: (§1)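 Five library-drug doses in √10 steps were combined with a fixed anchor-drug dose, or a single drug was given alone, by pin tool to lung cancer cell lines in 1536-well plates the day after seeding. Nuclei were stained and counted after 5 days. Relative viability is the nuclei count in treated wells over that in vehicle wells, taken as the median of duplicate plates.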

NCI-H661 = system: NCI-H661
Summary of the method: as §1

COR-L23 = system: COR-L23
Summary of the method: as §1

NCI-H1975 = system: NCI-H1975
Summary of the method: as §1

NCI-H1734 = system: NCI-H1734
Summary of the method: as §1

NCI-H1792 = system: NCI-H1792
Summary of the method: as §1

NCI-H2405 = system: NCI-H2405
Summary of the method: as §1

NCI-H23 = system: NCI-H23
Summary of the method: as §1

NCI-H2126 = system: NCI-H2126
Summary of the method: as §1

SK-MES-1 = system: SK-MES-1
Summary of the method: as §1

NCI-H1395 = system: NCI-H1395
Summary of the method: as §1

NCI-H2023 = system: NCI-H2023
Summary of the method: as §1

LK-2 = system: LK-2
Summary of the method: as §1

A-427 = system: A-427
Summary of the method: as §1

NCI-H460 = system: NCI-H460
Summary of the method: as §1

NCI-H1651 = system: NCI-H1651
Summary of the method: as §1

NCI-H3122 = system: NCI-H3122
Summary of the method: as §1

LU99A = system: LU99A
Summary of the method: as §1

HARA = system: HARA
Summary of the method: as §1

ChaGo-K-1 = system: ChaGo-K-1
Summary of the method: as §1

SW 1573 = system: SW 1573
Summary of the method: as §1

LCLC-97TM1 = system: LCLC-97TM1
Summary of the method: as §1

LOU-NH91 = system: LOU-NH91
Summary of the method: as §1

NCI-H2342 = system: NCI-H2342
Summary of the method: as §1

Q: What does the source list for `Cc1cn(-c2cc(NC(=O)c3ccc(C)c(Nc4nccc(-c5cccnc5)n4)c3)cc(C(F)(F)F)c2)cn1` [Nilotinib] + Nc1nc2[nH]cc(CCc3ccc(C(=O)N[C@@H](CCC(=O)O)C(=O)O)cc3)c2c(=O)[nH]1 [Pemetrexed] (partner 0.2 µM)?
A: relative viability (NCI-H838; first compound 0.001 µM): 0.246; relative viability (NCI-H838; first compound 0.003162 µM): 0.258; relative viability (NCI-H838; first compound 0.01 µM): 0.261; relative viability (NCI-H838; first compound 0.03162 µM): 0.252; relative viability (NCI-H838; first compound 0.1 µM): 0.228; relative viability (NCI-H661; first compound 0.001 µM): 0.966; relative viability (NCI-H661; first compound 0.003162 µM): 1.03; relative viability (NCI-H661; first compound 0.01 µM): 1.07; relative viability (NCI-H661; first compound 0.03162 µM): 0.888; relative viability (NCI-H661; first compound 0.1 µM): 0.893; relative viability (COR-L23; first compound 0.001 µM): 0.187; relative viability (COR-L23; first compound 0.003162 µM): 0.183; relative viability (COR-L23; first compound 0.01 µM): 0.19; relative viability (COR-L23; first compound 0.03162 µM): 0.163; relative viability (COR-L23; first compound 0.1 µM): 0.163; relative viability (NCI-H1975; first compound 0.001 µM): 0.294; relative viability (NCI-H1975; first compound 0.003162 µM): 0.298; relative viability (NCI-H1975; first compound 0.01 µM): 0.257; relative viability (NCI-H1975; first compound 0.03162 µM): 0.211; relative viability (NCI-H1975; first compound 0.1 µM): 0.235; relative viability (NCI-H1734; first compound 0.001 µM): 0.443; relative viability (NCI-H1734; first compound 0.003162 µM): 0.346; relative viability (NCI-H1734; first compound 0.01 µM): 0.364; relative viability (NCI-H1734; first compound 0.03162 µM): 0.388; relative viability (NCI-H1734; first compound 0.1 µM): 0.31; relative viability (NCI-H1792; first compound 0.001 µM): 0.623; relative viability (NCI-H1792; first compound 0.003162 µM): 0.899; relative viability (NCI-H1792; first compound 0.01 µM): 0.72; relative viability (NCI-H1792; first compound 0.03162 µM): 0.525; relative viability (NCI-H1792; first compound 0.1 µM): 0.709; relative viability (NCI-H2405; first compound 0.001 µM): 1.03; relative viability (NCI-H2405; first compound 0.003162 µM): 0.91; relative viability (NCI-H2405; first compound 0.01 µM): 0.924; relative viability (NCI-H2405; first compound 0.03162 µM): 0.699; relative viability (NCI-H2405; first compound 0.1 µM): 0.614; relative viability (NCI-H23; first compound 0.001 µM): 0.739; relative viability (NCI-H23; first compound 0.003162 µM): 0.553; relative viability (NCI-H23; first compound 0.01 µM): 0.494; relative viability (NCI-H23; first compound 0.03162 µM): 0.575; relative viability (NCI-H23; first compound 0.1 µM): 0.368; relative viability (NCI-H2126; first compound 0.001 µM): 0.68; relative viability (NCI-H2126; first compound 0.003162 µM): 0.767; relative viability (NCI-H2126; first compound 0.01 µM): 0.79; relative viability (NCI-H2126; first compound 0.03162 µM): 0.656; relative viability (NCI-H2126; first compound 0.1 µM): 0.47; relative viability (SK-MES-1; first compound 0.001 µM): 0.958; relative viability (SK-MES-1; first compound 0.003162 µM): 0.841; relative viability (SK-MES-1; first compound 0.01 µM): 1.05; relative viability (SK-MES-1; first compound 0.03162 µM): 0.868; relative viability (SK-MES-1; first compound 0.1 µM): 0.503; relative viability (NCI-H1395; first compound 0.001 µM): 1; relative viability (NCI-H1395; first compound 0.01 µM): 0.607; relative viability (NCI-H1395; first compound 0.03162 µM): 0.642; relative viability (NCI-H1395; first compound 0.1 µM): 0.517; relative viability (NCI-H2023; first compound 0.001 µM): 0.213; relative viability (NCI-H2023; first compound 0.003162 µM): 0.264; relative viability (NCI-H2023; first compound 0.01 µM): 0.223; relative viability (NCI-H2023; first compound 0.03162 µM): 0.189; relative viability (NCI-H2023; first compound 0.1 µM): 0.14; relative viability (LK-2; first compound 0.001 µM): 0.184; relative viability (LK-2; first compound 0.003162 µM): 0.3; relative viability (LK-2; first compound 0.01 µM): 0.332; relative viability (LK-2; first compound 0.03162 µM): 0.193; relative viability (LK-2; first compound 0.1 µM): 0.225; relative viability (A-427; first compound 0.003162 µM): 0.963; relative viability (A-427; first compound 0.01 µM): 0.952; relative viability (A-427; first compound 0.1 µM): 0.852; relative viability (NCI-H460; first compound 0.001 µM): 0.0733; relative viability (NCI-H460; first compound 0.003162 µM): 0.0599; relative viability (NCI-H460; first compound 0.01 µM): 0.0632; relative viability (NCI-H460; first compound 0.03162 µM): 0.0736; relative viability (NCI-H460; first compound 0.1 µM): 0.0505; relative viability (NCI-H1651; first compound 0.001 µM): 0.571; relative viability (NCI-H1651; first compound 0.003162 µM): 0.616; relative viability (NCI-H1651; first compound 0.01 µM): 0.732; relative viability (NCI-H1651; first compound 0.03162 µM): 0.556; relative viability (NCI-H1651; first compound 0.1 µM): 0.249; relative viability (NCI-H3122; first compound 0.001 µM): 0.18; relative viability (NCI-H3122; first compound 0.003162 µM): 0.226; relative viability (NCI-H3122; first compound 0.01 µM): 0.212; relative viability (NCI-H3122; first compound 0.03162 µM): 0.2; relative viability (NCI-H3122; first compound 0.1 µM): 0.195; relative viability (LU99A; first compound 0.001 µM): 0.158; relative viability (LU99A; first compound 0.003162 µM): 0.202; relative viability (LU99A; first compound 0.01 µM): 0.177; relative viability (LU99A; first compound 0.03162 µM): 0.225; relative viability (LU99A; first compound 0.1 µM): 0.155; relative viability (HARA; first compound 0.001 µM): 0.311; relative viability (HARA; first compound 0.003162 µM): 0.235; relative viability (HARA; first compound 0.01 µM): 0.198; relative viability (HARA; first compound 0.03162 µM): 0.184; relative viability (HARA; first compound 0.1 µM): 0.214; relative viability (ChaGo-K-1; first compound 0.001 µM): 0.27; relative viability (ChaGo-K-1; first compound 0.003162 µM): 0.244; relative viability (ChaGo-K-1; first compound 0.01 µM): 0.228; relative viability (ChaGo-K-1; first compound 0.03162 µM): 0.229; relative viability (ChaGo-K-1; first compound 0.1 µM): 0.215; relative viability (SW 1573; first compound 0.001 µM): 0.801; relative viability (SW 1573; first compound 0.003162 µM): 0.994; relative viability (SW 1573; first compound 0.01 µM): 0.91; relative viability (SW 1573; first compound 0.03162 µM): 0.541; relative viability (SW 1573; first compound 0.1 µM): 0.171; relative viability (LCLC-97TM1; first compound 0.001 µM): 0.18; relative viability (LCLC-97TM1; first compound 0.003162 µM): 0.165; relative viability (LCLC-97TM1; first compound 0.01 µM): 0.175; relative viability (LCLC-97TM1; first compound 0.03162 µM): 0.183; relative viability (LCLC-97TM1; first compound 0.1 µM): 0.0978; relative viability (LOU-NH91; first compound 0.001 µM): 0.376; relative viability (LOU-NH91; first compound 0.003162 µM): 1.11; relative viability (LOU-NH91; first compound 0.01 µM): 0.374; relative viability (LOU-NH91; first compound 0.03162 µM): 0.384; relative viability (LOU-NH91; first compound 0.1 µM): 0.403; relative viability (NCI-H2342; first compound 0.001 µM): 0.718; relative viability (NCI-H2342; first compound 0.003162 µM): 0.753; relative viability (NCI-H2342; first compound 0.01 µM): 0.793; relative viability (NCI-H2342; first compound 0.03162 µM): 0.718; relative viability (NCI-H2342; first compound 0.1 µM): 0.428
